These results are taken from patent US8722687B2, “Imidazo [1,2-A]pyridine derivatives as FGFR kinase inhibitors for use in therapy” (Astex Therapeutics Ltd, priority 2009, dated 2014).

For test [1], the system named is Ba/F3-Flt3 cells. The test can be described thus: Ba/F3-Flt3 assay (Alamar Blue). Type of test: cell-based, murine. Particulars: Mus musculus, 24 h; with 10 ng/ml murine IL3; read-out: Ba/F3-flt3 + IL3 pIC50 (converted). The source says: (§1) Ba/F3, a murine interleukin-3 dependent pro-B cell line is increasingly popular as a model system for assessing both the potency and downstream signaling of kinase oncogenes, and the ability of small-molecule kinase inhibitors to block kinase activity. Facilitated by their growth properties. Ba/F3 cells have recently been adapted to high throughput assay formats for compound profiling. Further, several published approaches show promise in predicting resistance to small-molecule kinase inhibitors elicited by point mutations interfering with inhibitor binding (Ba/F3 cells and their use in kinase drug discovery; Markus Warmuth, Sungjoon Kim, Xiang-ju Gu, Gang Xia and Francisco Adria'n; Curr Opin Oncol 19:55-60).
(§2) Ba/F3-Flt3 cells (cultured in phenol red free RPMI-1640, 10% A FCS and 50 μg/ml Gentamycin at 37° C. and 5% 002) were plated at a density of 10000 cells in a total volume of 180 μl medium in a black TC-treated sterile 96-well plate (Corning). After 24 hours, drugs in different dilutions were added to a final volume of 200 μl and at a final DMSO concentration of 0.2% prior to incubation at 37° C., and 5% CO2.
(§3) After 24 h, to each well 40 μl Alamar Blue solution (Aldrich) was added and the cells were further incubated for 4 hours at 37° C. Fluorescence (ex. 544, em. 590 nm) was measured using a fluorescence reader (Labsystems) and IC50's were calculated.
(§4) In the condition containing IL3, 10 ng/ml of murine IL3 (PeproTech) was added during compound incubation.
A general note: Alamar Blue is a resazurin reagent that responds to reducing activity.

Test [2] addresses T1, Ba/F3-Flt3 cells (Homo sapiens, UniProt P36888, cells depend on it, form not given).
T1 construct: Ba/F3-flt3 − IL3 pIC50; other: without IL3
T1 sequence (P36888 1-993): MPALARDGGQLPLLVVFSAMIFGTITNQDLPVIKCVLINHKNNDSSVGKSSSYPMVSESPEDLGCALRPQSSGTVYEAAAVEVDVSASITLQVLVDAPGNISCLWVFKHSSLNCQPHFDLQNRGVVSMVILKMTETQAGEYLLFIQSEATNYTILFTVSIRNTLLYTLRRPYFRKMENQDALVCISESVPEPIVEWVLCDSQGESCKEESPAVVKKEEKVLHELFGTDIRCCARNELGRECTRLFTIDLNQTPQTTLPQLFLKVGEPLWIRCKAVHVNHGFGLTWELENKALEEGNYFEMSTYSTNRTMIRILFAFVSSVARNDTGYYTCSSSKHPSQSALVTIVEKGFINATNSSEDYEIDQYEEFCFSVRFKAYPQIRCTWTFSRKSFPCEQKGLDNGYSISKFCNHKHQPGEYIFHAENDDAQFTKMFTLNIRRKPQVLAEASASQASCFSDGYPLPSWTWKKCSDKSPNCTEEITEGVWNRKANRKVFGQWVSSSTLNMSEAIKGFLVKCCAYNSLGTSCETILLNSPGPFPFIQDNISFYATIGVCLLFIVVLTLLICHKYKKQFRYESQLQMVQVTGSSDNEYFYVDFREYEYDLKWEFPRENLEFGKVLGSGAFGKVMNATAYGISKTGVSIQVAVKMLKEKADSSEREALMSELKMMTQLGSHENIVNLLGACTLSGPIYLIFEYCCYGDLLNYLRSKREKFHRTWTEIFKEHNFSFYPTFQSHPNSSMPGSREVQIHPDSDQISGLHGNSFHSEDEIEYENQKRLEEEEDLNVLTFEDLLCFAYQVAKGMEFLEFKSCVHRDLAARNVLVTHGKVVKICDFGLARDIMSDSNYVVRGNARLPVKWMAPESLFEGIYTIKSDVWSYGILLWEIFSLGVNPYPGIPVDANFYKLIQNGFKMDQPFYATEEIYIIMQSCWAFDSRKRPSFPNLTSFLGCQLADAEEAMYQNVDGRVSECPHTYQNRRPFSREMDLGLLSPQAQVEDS
Put plainly: Ba/F3-Flt3 assay (Alamar Blue). The class given is cell-based, murine. The following applies: without IL3.
Excerpt: as §1, §2, §3, §4

The target of test [3] is T2, VEGFR2 (Homo sapiens, UniProt P35968).
T2 construct: purchased Upstate
T2 sequence (P35968 20-1356): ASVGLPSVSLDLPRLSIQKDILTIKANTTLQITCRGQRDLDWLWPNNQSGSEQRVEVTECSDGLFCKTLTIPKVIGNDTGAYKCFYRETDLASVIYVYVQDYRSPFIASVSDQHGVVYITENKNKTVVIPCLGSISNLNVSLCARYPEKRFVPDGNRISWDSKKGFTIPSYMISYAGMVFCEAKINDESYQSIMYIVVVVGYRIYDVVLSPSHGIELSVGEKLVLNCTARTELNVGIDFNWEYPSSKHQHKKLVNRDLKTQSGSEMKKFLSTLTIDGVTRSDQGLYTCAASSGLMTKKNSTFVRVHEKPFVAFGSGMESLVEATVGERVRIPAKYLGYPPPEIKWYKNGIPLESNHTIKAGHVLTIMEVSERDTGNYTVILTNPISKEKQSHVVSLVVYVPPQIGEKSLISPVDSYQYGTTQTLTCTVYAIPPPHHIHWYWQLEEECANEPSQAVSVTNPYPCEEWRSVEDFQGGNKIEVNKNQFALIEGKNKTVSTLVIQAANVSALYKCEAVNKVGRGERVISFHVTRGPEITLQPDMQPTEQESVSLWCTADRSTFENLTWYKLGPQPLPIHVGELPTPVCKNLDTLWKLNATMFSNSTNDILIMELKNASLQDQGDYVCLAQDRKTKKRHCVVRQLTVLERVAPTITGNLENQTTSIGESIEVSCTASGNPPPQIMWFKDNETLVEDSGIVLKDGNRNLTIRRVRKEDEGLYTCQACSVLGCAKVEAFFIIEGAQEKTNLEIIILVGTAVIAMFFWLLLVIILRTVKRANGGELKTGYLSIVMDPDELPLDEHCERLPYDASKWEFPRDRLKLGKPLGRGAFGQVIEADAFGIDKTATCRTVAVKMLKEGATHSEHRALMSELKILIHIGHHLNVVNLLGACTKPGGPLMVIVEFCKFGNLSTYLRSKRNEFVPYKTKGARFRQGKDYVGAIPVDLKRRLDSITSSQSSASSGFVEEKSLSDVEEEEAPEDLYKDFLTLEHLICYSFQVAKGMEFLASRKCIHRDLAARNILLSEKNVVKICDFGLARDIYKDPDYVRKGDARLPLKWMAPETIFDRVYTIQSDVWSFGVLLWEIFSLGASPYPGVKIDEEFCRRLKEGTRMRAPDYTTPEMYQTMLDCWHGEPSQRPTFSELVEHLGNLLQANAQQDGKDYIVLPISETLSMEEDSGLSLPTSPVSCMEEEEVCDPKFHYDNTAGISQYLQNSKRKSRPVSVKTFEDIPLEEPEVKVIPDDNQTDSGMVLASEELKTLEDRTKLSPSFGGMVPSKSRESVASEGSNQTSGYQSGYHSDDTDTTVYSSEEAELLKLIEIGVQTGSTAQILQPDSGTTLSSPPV
The test can be described thus: VEGFR2 in vitro kinase inhibitory activity assay. Type of test: biochemical. The following applies: read-out: VEGFR2 IC50(μM) or % I. The procedure:
(§5) FGFR3, VEGFR2 and PDGFR in vitro Kinase Inhibitory Activity Assays
(§6) Enzymes (from Upstate), prepared at 2× final concentration, were incubated with test compounds, biotinylated Flt3 substrate (biotin-VASSDNEYFYVDF) (Cell Signalling Technology Inc.) and ATP in the appropriate assay buffer (Table 1). The reaction was allowed to proceed for 3 hours (FGFR3), 1 hour (VEGFR2, PDGFR-beta) at room temperature on a plate shaker at 700 rpm before being stopped with 35 mM EDTA, pH 8 (FGFR3, VEGFR2) or 55 mM EDTA, pH 8 (PDGFR-beta). 5× detection mix/50 mM HEPES pH 7.5, 0.1% BSA, 11.34 nM Eu-anti-pY (PY20) (PerkinElmer) 74 nM SA-XL665 (Cisbio) for FGFR3, 50 mM HEPES, pH 7.5, 0.1% BSA, 11.34 nM Eu-anti-pY (PY20), 187.5 nM SA-XL665 for VEGFR2 and 50 mM HEPES, pH 7.5, 0.1% BSA, 11.34 nM Eu-anti-pY (PT66) (PerkinElmer), 375 nM SA-XL665 (Cisbio) for PDGFR-beta) was then added to each well and the plate sealed and incubated at room temperature for one hour on a plate shaker at 700 rpm. The plate was then read on a Packard Fusion plate reader or a BMG Pherastar both in TRF mode.
Kinase Assay buffers were:
B: 50 mM HEPES pH 7.5, 6 mM MnCl2, 1 mM DTT, 0.01% TritonX-100, 0.1 mM Sodium orthovanadate

Test [4] concerns the target T3, FGFR3 (Homo sapiens, UniProt P22607).
T3 construct: purchased Upstate
The test can be described thus: FGFR3 in vitro kinase inhibitory activity assay. Type of test: biochemical. Particulars: read-out: FGFR3 IC50(μM) or % I. On the procedure:
as §5, §6

For test [5], the system named is human prostate cancer PC3 cells. The test can be described thus: EB1 cellular assay (Eb1 Comet assay, microtubule disruption). Particulars: PC-3, lowest active concentration: Eb1 foci absent in at least 50% of treated PC3 cells, 1 hour, read-out: Eb1 LAC. Type of test: cell-based. On the procedure: The Eb1 Comet assay relies on the detection of the Eb1 protein at the plus end of polymerizing microtubules (Mimori-Kiyosue, 2000) using indirect immunofluorescence. Disruption of microtubule dynamics through de-polymerization or stabilization results in a de-localization of Eb1 from the growing microtubule ends and this is visualized by the disappearance of Eb1 containing cytoplasmic foci.
Briefly, human prostate cancer PC3 cells obtained from the American Type Culture Collection were grown in 96-well plates (Greiner, cat. no. 655090) in HAM's F12 medium as recommended by the provider (ATCC). The cells were treated for 1 hour at 37° C. with compounds dissolved in DMSO (0.6% final DMSO concentration). The culture medium was then removed by aspiration and the cells were fixed by adding cold methanol (−20° C.). After a 15 minutes incubation at −20° C., the cells were washed twice with DPBS (Gibco) containing 0.5% Triton X-100. Mouse Eb1 antibody (BD Transduction Laboratories, cat. no. 610534) was added to the cells (1/250 dilution in DPBS containing 1% BSA) and incubated overnight at room temperature. The antibody was subsequently removed and the cells washed twice with DPBS, 0.5% Triton X-100. Secondary goat anti-mouse antibody conjugated to Alexa 488 fluorescent dye (Molecular Probes) was added at a 1/500 dilution in DPBS, 1% BSA and incubated for 1 hour at 37° C. The cells were washed twice with DPBS, 0.5% Triton X-100 and then DPBS containing 0.5% Triton X-100 and 1/5000 Hoechst 33342 (Molecular Probes) was added. Microscopy based Eb1 foci visualization was carried out using an IN Cell Analyser 1000 (Amersham Biosciences) using a 20× objective. Compound dependent microtubule disruption was visually determined by the disappearance in Eb1 foci. The lowest active concentration (LAC) was determined as the concentration where Eb1 foci were absent in at least 50% of the treated cells. Herein the effects of test compounds are expressed as pLAC (the negative log value of the LAC-value)

Test [6] concerns the target T4, Ba/F3-TEL-FGFR3 cells (Homo sapiens, UniProt P22607).
T4 construct: fused on or other part: TEL (ETV6) N-terminal oligomerising part fused to the FGFR3 kinase part; P41212 (Transcription factor ETV6)
The test can be described thus: Ba/F3-TEL-FGFR3 cell proliferation assay (Alamar Blue). The class given is cell-based, murine. Particulars: 72 hours; read-out: BaF3-TEL-FGFR3 prolif. The procedure: (§7) Ba/F3-TEL-FGFR3 & Ba/F3 (WT) Cell Proliferation Assays
(§8) Stably transfected Ba/F3-TEL-FGFR3 cells were plated out into black 96-well tissue culture plates with clear bottoms in RPMI medium containing 10% FBS and 0.25 mg/ml G418 at a density of 5×10^3 cells/well (200 μl per well). The parental wild-type Ba/F3 cells (DSMZ no.: ACC 300) were plated out into black 96-well tissue culture plates with clear bottoms in RPMI medium containing 10% FBS and 2 ng/ml mouse IL-3 (R&D Systems) at a density of 2.5×10^3 cells/well (200 μl per well). Plates were placed in an incubator overnight before adding the compounds the following day. Dilutions of compounds were made in DMSO starting at 10 mM and were diluted into the wells to give a final DMSO concentration of 0.1% in assay. Compounds were left on the cells for 72 hours before the plates were removed from the incubator and 20 μl of Alamar Blue™ (Biosource) was added to each well. Plates were placed in the incubator for 4-6 hours before reading plates at 535 nm (excitation)/590 nm (emission) on a Fusion plate reader (Packard). Where inhibition is high an IC50 can be determined.

In test [7] the test system is parental wild-type Ba/F3 cells. Put plainly: Ba/F3 (WT) cell proliferation assay (Alamar Blue). The class given is cell-based, murine. The following applies: BaF3; 72 hours, with mouse IL-3; read-out: BaF3 WT prolif. On the procedure: as §7, §8

T3 sequence (P22607 23-806): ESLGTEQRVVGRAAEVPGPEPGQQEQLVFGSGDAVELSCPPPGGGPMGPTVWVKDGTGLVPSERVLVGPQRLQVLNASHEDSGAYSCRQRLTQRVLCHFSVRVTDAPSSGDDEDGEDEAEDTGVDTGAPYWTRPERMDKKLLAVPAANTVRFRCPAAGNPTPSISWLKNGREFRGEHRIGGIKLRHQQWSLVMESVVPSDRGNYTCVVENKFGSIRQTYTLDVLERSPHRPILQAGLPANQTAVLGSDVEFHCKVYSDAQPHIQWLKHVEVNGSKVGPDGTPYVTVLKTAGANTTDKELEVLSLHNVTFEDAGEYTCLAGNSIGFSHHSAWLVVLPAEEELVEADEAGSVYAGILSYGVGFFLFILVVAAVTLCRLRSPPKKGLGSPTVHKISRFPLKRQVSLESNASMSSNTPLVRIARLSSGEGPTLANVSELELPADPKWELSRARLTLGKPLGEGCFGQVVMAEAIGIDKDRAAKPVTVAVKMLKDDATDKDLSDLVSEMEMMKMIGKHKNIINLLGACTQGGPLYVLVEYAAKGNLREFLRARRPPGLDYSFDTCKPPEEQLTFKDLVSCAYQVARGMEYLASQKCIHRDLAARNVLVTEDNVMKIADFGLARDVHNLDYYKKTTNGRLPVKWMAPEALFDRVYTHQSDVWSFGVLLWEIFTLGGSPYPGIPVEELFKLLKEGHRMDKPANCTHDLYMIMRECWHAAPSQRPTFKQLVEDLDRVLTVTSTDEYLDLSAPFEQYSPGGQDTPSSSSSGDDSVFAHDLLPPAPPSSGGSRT
T4 sequence (P22607 whole entry, change not shown, the tested form may be a part): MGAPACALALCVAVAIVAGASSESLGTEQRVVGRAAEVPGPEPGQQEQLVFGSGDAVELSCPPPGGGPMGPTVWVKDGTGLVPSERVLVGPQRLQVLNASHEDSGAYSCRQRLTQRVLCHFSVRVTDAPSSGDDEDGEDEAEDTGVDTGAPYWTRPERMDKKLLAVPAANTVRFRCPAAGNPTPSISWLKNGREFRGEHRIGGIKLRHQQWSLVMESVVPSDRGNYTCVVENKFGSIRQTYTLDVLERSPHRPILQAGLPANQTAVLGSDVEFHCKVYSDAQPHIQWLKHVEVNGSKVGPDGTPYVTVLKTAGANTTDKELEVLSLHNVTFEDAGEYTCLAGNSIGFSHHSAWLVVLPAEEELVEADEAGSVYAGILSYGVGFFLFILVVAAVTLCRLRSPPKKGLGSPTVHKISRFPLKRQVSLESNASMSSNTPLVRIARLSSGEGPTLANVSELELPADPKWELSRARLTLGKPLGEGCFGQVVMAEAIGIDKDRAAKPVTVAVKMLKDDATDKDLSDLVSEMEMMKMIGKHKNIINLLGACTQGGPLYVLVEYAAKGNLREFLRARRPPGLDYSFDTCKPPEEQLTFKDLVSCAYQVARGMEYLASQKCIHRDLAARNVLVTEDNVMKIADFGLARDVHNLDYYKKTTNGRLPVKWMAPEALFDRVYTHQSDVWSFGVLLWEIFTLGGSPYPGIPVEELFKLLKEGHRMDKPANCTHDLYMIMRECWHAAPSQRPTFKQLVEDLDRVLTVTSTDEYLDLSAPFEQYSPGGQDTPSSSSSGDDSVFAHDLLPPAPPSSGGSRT

In the case of `O=C(NCC(F)(F)F)Nc1cc(OC2CCC2)cc(-c2cnc3cc(-c4ccnc(C(F)(F)F)n4)ccn23)c1` [Compound F-12, 1-{3-Cyclobutoxy-5-[7-(2-trifluoromethyl-pyrimidin-4-yl)-imidazo[1,2-a]pyridin-3-yl]-phenyl}-3-(2,2,2-trifluoro-ethyl)-urea], the values for the IC50 in test [1] and in test [3] were above 10000 nM and 2.2 µM, respectively. Also, in test [2], the “Ba/F3-flt3 − IL3 pIC50” value is recorded as below 5. In addition, the inhibition at 0.3 µM in test [4] (3 h, % I at 0.3 μM) stood at 60%. The minimal effective concentration in test [5] was above 10 µM.

Regarding `Cc1nnc(-c2ccn3c(-c4cc(NC(=O)NCC(C)C)cc(OC(C)C)c4)cnc3c2)o1` [Compound F-14, 1-Isobutyl-3-{3-isopropoxy-5-[7-(5-methyl-[1,3,4]oxadiazol-2-yl)-imidazo[1,2-a]pyridin-3-yl]-phenyl}-urea], the IC50 amounted to 2.6 µM in test [3] and 0.2 µM in test [4].

Consider `CC(C)Oc1cc(NC(=O)NCC(F)(F)F)cc(-c2cnc3cc(-c4cc(N(C)C)ncn4)ccn23)c1` [Compound F-21, 1-{3-[7-(6-Dimethylamino-pyrimidin-4-yl)-imidazo[1,2-a]pyridin-3-yl]-5-isopropoxy-phenyl}-3-(2,2,2-trifluoro-ethyl)-urea], for which the GI50 in test [6] turned out to be 240 nM. The values for the IC50 in test [3], in test [7] and in test [4] were 0.79 µM, 2300 nM and 0.012 µM, respectively.

As for `Cc1nnc(-c2ccn3c(-c4cc(CN(C)C)cc(NC(=O)NCC(F)(F)F)c4)cnc3c2)o1` [Compound F-24, 1-{3-Dimethylaminomethyl-5-[7-(5-methyl-[1,3,4]oxadiazol-2-yl)-imidazo[1,2-a]pyridin-3-yl]-phenyl}-3-(2,2,2-trifluoroethyl)-urea], the values for the IC50 in test [1] and in test [3] were above 10000 nM and 2.8 µM, respectively. Moreover, the “Ba/F3-flt3 − IL3 pIC50” value in test [2] is recorded as below 5. Moreover, the minimal effective concentration in test [5] was above 10 µM.

`CNCc1cc(NC(=O)NCC(F)(F)F)cc(-c2cnc3cc(-c4nnc(C)o4)ccn23)c1` [Compound F-25, 1-{3-Methylaminomethyl-5-[7-(5-methyl-[1,3,4]oxadiazol-2-yl)-imidazo[1,2-a]pyridin-3-yl]-phenyl}-3-(2,2,2-trifluoroethyl)-urea]: the IC50 is above 10000 nM in test [1], 1.7 µM in test [3] and 0.46 µM in test [4]. Further, the “Ba/F3-flt3 − IL3 pIC50” value in test [2] is given as below 5. Besides, the minimal effective concentration in test [5] was above 10 µM.

Regarding `Cc1nnc(-c2ccn3c(-c4cc(NC(=O)NCC(F)(F)F)cc(NC(C)C)c4)cnc3c2)o1` [Compound F-30], the IC50 in test [1] is above 10000 nM; in test [3], 5.8 µM; in test [4], 0.17 µM. Moreover, the “Ba/F3-flt3 − IL3 pIC50” value in test [2] is on record as below 5. Further, the minimal effective concentration in test [5] came out at 10 µM.

On to `Cc1nnc(-c2ccn3c(-c4cc(NC(=O)NC(O)C(F)(F)F)cc(OC(C)C)c4)cnc3c2)o1` (centres unmarked) [Compound F-32, 1-{3-Isopropoxy-5-[7-(5-methyl-[1,3,4]oxadiazol-2-yl)-imidazo[1,2-a]pyridin-3-yl]-phenyl}-3-(2,2,2-trifluoro-1-hydroxyethyl)-urea], for which the IC50 was above 10000 nM in test [1] and 1.2 µM in test [3]. Moreover, the “Ba/F3-flt3 − IL3 pIC50” value in test [2] is on record as below 5. Moreover, in test [5], the minimal effective concentration is above 10 µM.
